For 13 compounds, TGI and GI50 results are on record in PubChem BioAssay (NCI).

Test systems include HCT-116 colon; OVCAR-3 ovarian; NCI/ADR-RES ovarian; 786-0 renal; SNB-75 CNS; M14 melanoma; HCT-15 colon; HOP-62 NSCLC; UO-31 renal; SK-MEL-28 melanoma.
Assay in all cases: inhibition of tumour cell growth, NCI panel, 48 h

“And” between values parts separate entries of the source, which are not always exact repeats. Equal values may be shown once.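 The compound was tested at five concentrations on cells cultured in 96-well plates, with a 48-hour exposure period. The concentration for 50% growth inhibition is given as GI50. At the TGI there is no net growth.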

Take `NC(=O)/C=C/NC(=O)/C=N\O`: the TGI in the assay with HCT-116 colon, in the assay on OVCAR-3 ovarian, in the assay with NCI/ADR-RES ovarian, in the assay on 786-0 renal, in the assay with SNB-75 CNS and in the assay with M14 melanoma was greater than 100 µM throughout. Besides, the TGI in the assay with HCT-15 colon, in the assay with HOP-62 NSCLC, with UO-31 renal and in the assay with SK-MEL-28 melanoma was greater than 100 µM in each case.

For `CCCCCC/C=C\CCCCCCCCCC1=CC(=O)C=C(OC)C1=O`, the TGI in the assay on HCT-116 colon was 12.2 µM; with OVCAR-3 ovarian, 17.6 µM; with NCI/ADR-RES ovarian it was 19.1 µM; in the assay with 786-0 renal, 17 µM; in the assay on SNB-75 CNS, 8.07 µM; in the assay with M14 melanoma it was 16.2 µM. Besides, the TGI with HCT-15 colon was determined as 11.1 µM; with HOP-62 NSCLC it was 14.8 µM; in the assay with UO-31 renal, 14 µM; in the assay with SK-MEL-28 melanoma, 25.7 µM.

As for `COc1ccc(C(=O)/C=C/c2ccc(OCC(=O)N3CCN(c4ccccc4)CC3)cc2)cc1`, the TGI is greater than 100 µM with HCT-116 colon; greater than 100 µM in the assay with OVCAR-3 ovarian; greater than 100 µM in the assay on NCI/ADR-RES ovarian; greater than 77.3 µM with 786-0 renal; 62.5 µM in the assay on SNB-75 CNS; greater than 100 µM in the assay on M14 melanoma. The TGI is greater than 100 µM in the assay with HCT-15 colon, greater than 79.6 µM in the assay on HOP-62 NSCLC, greater than 94.7 µM in the assay on UO-31 renal and greater than 100 µM in the assay with SK-MEL-28 melanoma.

As for `COc1cnc2c(c1)C(=O)c1c-2n(CCCN2CCCC2)c(=O)c2cc(F)ccc12`, the GI50 is 0.153 µM in the assay with HCT-116 colon; 0.307 µM in the assay on OVCAR-3 ovarian; 0.467 µM in the assay on NCI/ADR-RES ovarian; 0.257 µM in the assay with 786-0 renal; 0.327 µM in the assay with SNB-75 CNS; 0.392 µM in the assay with M14 melanoma. In addition, the GI50 in the assay with HCT-15 colon was 0.283 µM; with HOP-62 NSCLC, 0.212 µM; with UO-31 renal, 0.152 µM; with SK-MEL-28 melanoma, 2.49 µM. Further, the TGI in the assay on HCT-116 colon was 0.663 µM; in the assay on OVCAR-3 ovarian it was 1.51 µM; in the assay on NCI/ADR-RES ovarian it was 3.19 µM; with 786-0 renal it was 1.11 µM; in the assay with SNB-75 CNS it was 5.44 µM; in the assay on M14 melanoma, 1.95 µM. The TGI was found to be 1.98 µM in the assay with HCT-15 colon, 0.687 µM with HOP-62 NSCLC, 1.04 µM with UO-31 renal and 14.7 µM in the assay with SK-MEL-28 melanoma.

As to `COc1cc2nc3cc([N+](=O)[O-])ccc3c(NCCCNCC(C)(C)O)c2cc1OC`, the GI50 in the assay with HCT-116 colon was 0.299 µM; with OVCAR-3 ovarian, 0.33 µM; in the assay with NCI/ADR-RES ovarian, 10.5 µM; with 786-0 renal it was 0.277 µM; in the assay with SNB-75 CNS, 0.3 µM; in the assay with M14 melanoma, 0.352 µM. Further, the GI50 in the assay with HCT-15 colon is 1.3 µM; in the assay with HOP-62 NSCLC, 0.169 µM; in the assay on UO-31 renal it was 1.46 µM; with SK-MEL-28 melanoma, 0.839 µM. Besides, the TGI with HCT-116 colon was determined as 1.04 µM; with OVCAR-3 ovarian it was 1.03 µM; in the assay on NCI/ADR-RES ovarian, 25.3 µM; in the assay with 786-0 renal, 1.22 µM; with SNB-75 CNS, 1.61 µM; in the assay with M14 melanoma, 1.5 µM. The TGI in the assay on HCT-15 colon was determined as 8.29 µM; in the assay on HOP-62 NSCLC, 0.708 µM; with UO-31 renal, 5.14 µM; in the assay on SK-MEL-28 melanoma, 2.5 µM.

Take `O=C(O)c1ccc2c(c1)nc(Nc1cccc(Cl)c1)c1ccncc12`: the GI50 with HCT-116 colon is 2.39 µM and 2.82 µM; in the assay on OVCAR-3 ovarian, 1.2 µM and 1.68 µM; in the assay with NCI/ADR-RES ovarian it was 3.17 µM and 3.73 µM; in the assay with 786-0 renal it was 3.7 µM and 4.2 µM; in the assay with SNB-75 CNS, 1.44 µM and 1.67 µM; in the assay on M14 melanoma, 1.52 µM and 2.2 µM. For the same compound, the GI50 was 3.12 µM and 2.92 µM in the assay with HCT-15 colon; 3.3 µM and 3.38 µM in the assay on HOP-62 NSCLC; 3.79 µM and 2.86 µM with UO-31 renal; 3.12 µM and 3.2 µM with SK-MEL-28 melanoma. Moreover, the TGI with HCT-116 colon was 8.69 µM and > 10 µM; in the assay with OVCAR-3 ovarian, 4.15 µM and > 10 µM; with NCI/ADR-RES ovarian it was greater than 80.1 µM; in the assay on 786-0 renal, 18.6 µM and > 10 µM; in the assay on SNB-75 CNS, 6.33 µM and 7.53 µM; with M14 melanoma, 5.39 µM and 9.68 µM. The TGI in the assay on HCT-15 colon is 21.7 µM and > 10 µM; with HOP-62 NSCLC, 25.5 µM and > 10 µM; in the assay on UO-31 renal, 14 µM and > 10 µM; with SK-MEL-28 melanoma, 21.9 µM and > 10 µM.

On to `O=C(CCCCCCSc1nc(-c2ccc(Cl)cc2)cc(-c2ccc(Cl)cc2)n1)NO`, for which the GI50 in the assay with HCT-116 colon was 1.45 µM; in the assay on OVCAR-3 ovarian it was 1.38 µM; in the assay on NCI/ADR-RES ovarian, 0.998 µM; with 786-0 renal it was 1.59 µM; with SNB-75 CNS, 1.32 µM; in the assay with M14 melanoma, 1.26 µM. Further, the GI50 was 1.76 µM in the assay with HCT-15 colon, 1.52 µM with HOP-62 NSCLC, 0.735 µM in the assay with UO-31 renal and 2.04 µM with SK-MEL-28 melanoma. The TGI was determined as 6.05 µM in the assay with HCT-116 colon; 4.91 µM in the assay on OVCAR-3 ovarian; 2.97 µM with NCI/ADR-RES ovarian; 6.32 µM in the assay on 786-0 renal; 15.6 µM in the assay with SNB-75 CNS; 3.87 µM with M14 melanoma. Further, the TGI in the assay on HCT-15 colon is greater than 50 µM; with HOP-62 NSCLC, 6.47 µM; with UO-31 renal it was 2.42 µM; with SK-MEL-28 melanoma, greater than 50 µM.

Take `CCc1nc(N)nc(N)c1-c1ccc(NCCc2ccccc2)c([N+](=O)[O-])c1`: the TGI in the assay with HCT-116 colon turned out to be 36.7 µM; in the assay on OVCAR-3 ovarian, 32.2 µM; with NCI/ADR-RES ovarian, 53.7 µM; in the assay with 786-0 renal it was 17 µM; in the assay on SNB-75 CNS, 47.3 µM; in the assay on M14 melanoma it was 39.3 µM. Besides, the TGI is greater than 57.5 µM with HCT-15 colon, greater than 46.9 µM in the assay with HOP-62 NSCLC, greater than 51.4 µM with UO-31 renal and 28.2 µM in the assay on SK-MEL-28 melanoma.

In the case of `Cc1cc(C)nc(SC2=C(Nc3cccc(Cl)c3C)C(=O)N(Cc3ccccc3)C2=O)n1`, the GI50 in the assay with HCT-116 colon, with OVCAR-3 ovarian, with NCI/ADR-RES ovarian, in the assay with 786-0 renal, with SNB-75 CNS and with M14 melanoma was greater than 160 µM each time. The GI50 in the assay on HCT-15 colon, in the assay with HOP-62 NSCLC, in the assay on UO-31 renal and with SK-MEL-28 melanoma was greater than 160 µM throughout. For the same compound, the TGI with HCT-116 colon, in the assay on OVCAR-3 ovarian, in the assay with NCI/ADR-RES ovarian, in the assay with 786-0 renal, in the assay on SNB-75 CNS and in the assay with M14 melanoma was greater than 160 µM each time. For the same compound, the TGI in the assay on HCT-15 colon, with HOP-62 NSCLC, in the assay with UO-31 renal and in the assay on SK-MEL-28 melanoma was greater than 160 µM in each case.

On to `O=C(c1ccccc1)c1nc2ccc(C(F)(F)F)cc2[n+]([O-])c1C(F)(F)F`, for which the GI50 was 31.3 µM in the assay with HCT-116 colon; 24.2 µM in the assay on OVCAR-3 ovarian; 27 µM in the assay on NCI/ADR-RES ovarian; 48 µM with 786-0 renal; 37.1 µM in the assay on SNB-75 CNS; 34.5 µM in the assay on M14 melanoma. The GI50 with HCT-15 colon is 35.1 µM; with HOP-62 NSCLC, 59.6 µM; in the assay with UO-31 renal it was 23.8 µM; with SK-MEL-28 melanoma, 58.8 µM. Moreover, the TGI in the assay with HCT-116 colon, in the assay on OVCAR-3 ovarian, in the assay with NCI/ADR-RES ovarian, in the assay on 786-0 renal, in the assay with SNB-75 CNS and in the assay on M14 melanoma was greater than 100 µM throughout. The TGI with HCT-15 colon, in the assay with HOP-62 NSCLC, in the assay with UO-31 renal and in the assay with SK-MEL-28 melanoma was greater than 100 µM throughout.

Turning to `C[C@H]1C(Oc2ccc(O)cc2)OC2OC3(C)CCC4[C@H](C)CCC1C24OO3` (stereo not given in full), the GI50 in the assay with HCT-116 colon was 8.56 µM; with OVCAR-3 ovarian it was 6.12 µM; in the assay on NCI/ADR-RES ovarian, 8.04 µM; in the assay with 786-0 renal, 10.7 µM; with SNB-75 CNS, 17.6 µM; in the assay on M14 melanoma, 16.1 µM. The GI50 is 2.36 µM with HCT-15 colon, 21.8 µM in the assay with HOP-62 NSCLC, 11 µM with UO-31 renal and 18.4 µM in the assay with SK-MEL-28 melanoma. The TGI stood at 25 µM in the assay with HCT-116 colon; 32.8 µM in the assay with OVCAR-3 ovarian; 25.8 µM in the assay on NCI/ADR-RES ovarian; 27.2 µM in the assay with 786-0 renal; 39.3 µM in the assay on SNB-75 CNS; 34.3 µM in the assay with M14 melanoma. The TGI came to 23.8 µM in the assay on HCT-15 colon, 51.5 µM in the assay with HOP-62 NSCLC, 26.2 µM in the assay on UO-31 renal and 39.5 µM with SK-MEL-28 melanoma.

Turning to `Cc1ccc(S(=O)(=O)Cc2nc(-c3ccc(C(=O)NCc4cccnc4)cc3)oc2C)cc1`, the GI50 in the assay on HCT-116 colon is less than 0.01 µM; in the assay with OVCAR-3 ovarian it was 8.1 µM; with NCI/ADR-RES ovarian it was 0.623 µM; in the assay with 786-0 renal it was 20 µM; in the assay with SNB-75 CNS it was 4.73 µM; in the assay on M14 melanoma it was 0.0699 µM. The GI50 with HCT-15 colon was 0.0524 µM; in the assay with HOP-62 NSCLC, 15.4 µM; in the assay on UO-31 renal, 23.7 µM; with SK-MEL-28 melanoma, 15.5 µM. Moreover, the TGI in the assay with HCT-116 colon is greater than 100 µM; with OVCAR-3 ovarian, greater than 100 µM; in the assay on NCI/ADR-RES ovarian, greater than 100 µM; in the assay on 786-0 renal it was greater than 100 µM; with SNB-75 CNS it was 47.9 µM; in the assay on M14 melanoma, greater than 100 µM. Further, the TGI was greater than 100 µM with HCT-15 colon, greater than 88.8 µM in the assay on HOP-62 NSCLC, greater than 100 µM with UO-31 renal and greater than 100 µM with SK-MEL-28 melanoma.

Consider `CC(=O)OC1CC2C(C)(C)C(=O)C=CC2(C)C2CCC3(C)C(c4ccoc4)OC(=O)C4OC43C12C` (stereo not given), for which the TGI is 11.3 µM in the assay on HCT-116 colon; greater than 100 µM in the assay on OVCAR-3 ovarian; greater than 100 µM in the assay on NCI/ADR-RES ovarian; 27.4 µM in the assay with 786-0 renal; greater than 100 µM in the assay on SNB-75 CNS; 28.1 µM with M14 melanoma. Further, the TGI with HCT-15 colon is 35.4 µM; in the assay with HOP-62 NSCLC, 87 µM; with UO-31 renal, 15.2 µM; in the assay on SK-MEL-28 melanoma, greater than 100 µM.
